biological target: T1, Human α-thrombin (Homo sapiens, UniProt P00734); experiment: Test A: Determination of Thrombin Inhibition with a Chromogenic, Robotic Assay; assay type: biochemical; details: chromogenic substrate S-2366 0.30 mmol/L, α-thrombin 0.020 NIHU/mL, 40 minutes incubation at 37° C.
T1 construct: Human α-thrombin; purchased Sigma Chemical Co. or Hematologic Technologies
Experimental: Determination of Thrombin Inhibition with a Chromogenic, Robotic Assay
The thrombin inhibitor potency is measured with a chromogenic substrate method, in a Plato 3300 robotic microplate processor (Rosys AG, CH-8634 Hombrechtikon, Switzerland), using 96-well, half volume microtitre plates (Costar, Cambridge, Mass., USA; Cat No 3690). Stock solutions of test substance in DMSO (72 μL), 0.1-1 mmol/L, are diluted serially 1:3 (24+48 μL) with DMSO to obtain ten different concentrations, which are analyzed as samples in the assay. 2 μL of test sample is diluted with 124 μL assay buffer, 12 μL of chromogenic substrate solution (S-2366, Chromogenix, Mölndal, Sweden) in assay buffer and finally 12 μL of α-thrombin solution (Human α-thrombin, Sigma Chemical Co. or Hematologic Technologies) in assay buffer, are added, and the samples mixed. The final assay concentrations are: test substance […], S-2366 0.30 mmol/L, α-thrombin 0.020 NIHU/mL The linear absorbance increment during 40 minutes incubation at 37° C. is used for calculation of percentage inhibition for the test samples, as compared to blanks without inhibitor. The IC50 value, corresponding to the inhibitor concentration which causes 50% inhibition of the thrombin activity, is calculated from a log concentration vs. % inhibition curve.

| SMILES | IC50 [nM] |
| --- | --- |
| O=C(NCc1cc(Cl)ccc1-n1cnnn1)[C@@H]1CCON1C(=O)C(O)c1ccc(F)cc1F (stereo partly drawn) [Example 33, (3S)—N-[5-Chloro-2-(1H-tetrazol-1-yl)benzyl]-2-[(2,4-difluorophenyl)(hydroxy)acetyl]isoxazolidine-3-carboxamide] | 100 |
| Cc1cccc(C(O)C(=O)N2OCC[C@H]2C(=O)NCc2cc(Cl)ccc2-n2cnnn2)c1 (stereo partly drawn) [Example 37, (3S)—N-[5-Chloro-2-(1H-tetrazol-1-yl)benzyl]-2-[hydroxy(3-methylphenyl)acetyl]isoxazolidine-3-carboxamide] | 16 |
| O=C(NCc1cc(Cl)ccc1-n1cnnn1)[C@@H]1CCNN1C(=O)C(O)c1ccc(F)cc1F (stereo partly drawn) [Example 51, (3S)—N-[5-Chloro-2-(1H-tetrazol-1-yl)benzyl]-2-[(2,4-difluorophenyl)(hydroxy)acetyl]pyrazolidine-3-carboxamide] | 63 |
| O=C(NCc1cc(Cl)ccc1-n1cnnn1)[C@@H]1CCNN1C(=O)C1(O)CCOc2ccccc21 (stereo partly drawn) [Example 53, (3S)—N-[5-Chloro-2-(1H-tetrazol-1-yl)benzyl]-2-[(4-hydroxy-3,4-dihydro-2H-chromen-4-yl)carbonyl]pyrazolidine-3-carboxamide] | 240 |
| CC(C)(C)C[C@@H](N)C(=O)N1N=CC[C@H]1C(=O)NCc1cc(Cl)ccc1-n1cnnn1 [Example 18, (5S)—N-[5-Chloro-2-(1H-tetrazol-1-yl)benzyl]-1-(4-methyl-D-leucyl)-4,5-dihydro-1H-pyrazole-5-carboxamide] | 3.5 |
| CC(C)(C)OC[C@@H](O)C(=O)N1OCC[C@H]1C(=O)NCc1cc(Cl)ccc1-n1cnnn1 [Example 40, (3S)-2-[(2R)-3-tert-Butoxy-2-hydroxypropanoyl]-N-[5-chloro-2-(1H-tetrazol-1-yl)benzyl]isoxazolidine-3-carboxamide] | 44 |
| CC(C)CC(=O)O[C@@H](C(=O)N1N=CC[C@H]1C(=O)NCc1cc(Cl)ccc1-n1cnnn1)c1ccc(F)cc1 [Example 24, (1R)-2-[(5S)-5-{[5-Chloro-2-(1H-tetrazol-1-yl)benzyl]carbamoyl}-4,5-dihydro-1H-pyrazol-1-yl]-1-(4-fluorophenyl)-2-oxoethyl 3-methylbutanoate] | 140 |
| CC(C)CC[C@@H](O)C(=O)N1OCC[C@H]1C(=O)NCc1cc(Cl)ccc1-n1cnnn1 [Example 39, (3S)—N-[5-Chloro-2-(1H-tetrazol-1-yl)benzyl]-2-[(2R)-2-hydroxy-5-methylhexanoyl]isoxazolidine-3-carboxamide] | 13 |
| CC(=O)O[C@@H](C(=O)N1N=CC[C@H]1C(=O)NCc1cc(Cl)ccc1-n1cnnn1)c1ccc(F)cc1 [Example 23, [(1R)-2-[(5S)-5-[[5-Chloro-2-(tetrazol-1-yl)phenyl]methylcarbamoyl]-4,5-dihydropyrazol-1-yl]-1-(4-fluorophenyl)-2-oxo-ethyl]acetate] | 193 |
| O=C(NCc1cc(Cl)ccc1-n1cnnn1)[C@@H]1CC=NN1C(=O)[C@H](O)CC1CC1 [Example 19, (5S)—N-[5-Chloro-2-(1H-tetrazol-1-yl)benzyl]-1-[(2R)-3-cyclopropyl-2-hydroxypropanoyl]-4,5-dihydro-1H-pyrazole-5-carboxamide] | 31 |
| O=C(O[C@@H](C(=O)N1N=CC[C@H]1C(=O)NCc1cc(Cl)ccc1-n1cnnn1)c1ccc(F)cc1)c1ccccc1 [Example 29, (1R)-2-[(5S)-5-{[5-Chloro-2-(1H-tetrazol-1-yl)benzyl]carbamoyl}-4,5-dihydro-1H-pyrazol-1-yl]-1-(4-fluorophenyl)-2-oxoethyl benzoate] | 13 |
| N#Cc1cccc(C(O)C(=O)N2OCC[C@H]2C(=O)NCc2cc(Cl)ccc2-n2cnnn2)c1 (stereo partly drawn) [Example 48, (3S)—N-[5-Chloro-2-(1H-tetrazol-1-yl)benzyl]-2-[(3-cyanophenyl)(hydroxy)acetyl]isoxazolidine-3-carboxamide] | 92 |
| O=C(NCc1cc(Cl)ccc1-n1cnnn1)[C@@H]1CCON1C(=O)C(O)c1cc(F)cc(F)c1 (stereo partly drawn) [Example 35, (3S)—N-[5-Chloro-2-(1H-tetrazol-1-yl)benzyl]-2-[(3,5-difluorophenyl)(hydroxy)acetyl]isoxazolidine-3-carboxamide] | 70 |
| O=C(NCc1cc(Cl)ccc1-n1cnnn1)[C@@H]1CCNN1C(=O)[C@H](O)Cc1ccccc1 [Example 56, (3S)—N-[5-Chloro-2-(1H-tetrazol-1-yl)benzyl]-2-[(2R)-2-hydroxy-3-phenylpropanoyl]pyrazolidine-3-carboxamide] | 79 |
| O=C(NCc1cc(Cl)ccc1-n1cnnn1)[C@@H]1CCON1C(=O)[C@H](O)C1CCCCC1 [Example 42, (3S)—N-[5-Chloro-2-(1H-tetrazol-1-yl)benzyl]-2-[(2R)-2-cyclohexyl-2-hydroxyacetyl]isoxazolidine-3-carboxamide] | 21 |
| O=C(NCc1cc(Cl)ccc1-n1cnnn1)[C@@H]1CC=NN1C(=O)C1(O)CCOc2ccccc21 (some centres unmarked) [Example 12] | 130 |
| O=C(NCc1cc(Cl)ccc1-n1cnnn1)[C@@H]1CCON1C(=O)[C@H](O)Cc1ccccc1 [Example 47, (3S)—N-[5-Chloro-2-(1H-tetrazol-1-yl)benzyl]-2-[(2R)-2-hydroxy-3-phenylpropanoyl]isoxazolidine-3-carboxamide] | 80 |
| O=C(NCc1cc(Cl)ccc1-n1cnnn1)[C@@H]1CC=NN1C(=O)C(O)c1cc(F)cc(F)c1 (stereo partly drawn) [Example 4, (5S)—N-[5-Chloro-2-(1H-tetrazol-1-yl)benzyl]-1-[(3,5-difluorophenyl)(hydroxy)acetyl]-4,5-dihydro-1H-pyrazole-5-carboxamide] | 18 |
| O=C(NCc1cc(Cl)ccc1-n1cnnn1)[C@@H]1CCNN1C(=O)[C@H](O)c1ccc(F)cc1 [Example 52, (3S)—N-[5-Chloro-2-(1H-tetrazol-1-yl)benzyl]-2-[(2R)-2-(4-fluorophenyl)-2-hydroxyacetyl]pyrazolidine-3-carboxamide] | 8.4 |
| CCCCC(=O)O[C@@H](C(=O)N1N=CC[C@H]1C(=O)NCc1cc(Cl)ccc1-n1cnnn1)c1ccc(F)cc1 [Example 27, (1R)-2-[(5S)-5-{[5-Chloro-2-(1H-tetrazol-1-yl)benzyl]carbamoyl}-4,5-dihydro-1H-pyrazol-1-yl]-1-(4-fluorophenyl)-2-oxoethyl pentanoate] | 140 |
| CC(C)C(=O)O[C@@H](C(=O)N1N=CC[C@H]1C(=O)NCc1cc(Cl)ccc1-n1cnnn1)c1ccc(F)cc1 [Example 26, (1R)-2-[(5S)-5-{[5-Chloro-2-(1H-tetrazol-1-yl)benzyl]carbamoyl}-4,5-dihydro-1H-pyrazol-1-yl]-1-(4-fluorophenyl)-2-oxoethyl 2-methylpropanoate] | 150 |
| CC(C)(C)OC[C@@H](N)C(=O)N1OCC[C@H]1C(=O)NCc1cc(Cl)ccc1-n1cnnn1 [Example 32, (3S)-2-(O-tert-Butyl-D-seryl)-N-[5-chloro-2-(1H-tetrazol-1-yl)benzyl]isoxazolidine-3-carboxamide] | 170 |
| CC1(C[C@@H](O)C(=O)N2OCC[C@H]2C(=O)NCc2cc(Cl)ccc2-n2cnnn2)CC1 [Example 43, (3S)—N-[5-Chloro-2-(1H-tetrazol-1-yl)benzyl]-2-[(2R)-2-hydroxy-3-(1-methylcyclopropyl)propanoyl]isoxazolidine-3-carboxamide] | 68 |
| O=C(NCc1cc(Cl)ccc1-n1cnnn1)[C@@H]1CCON1C(=O)[C@H](O)C1CCCC1 [Example 41, (3S)—N-[5-Chloro-2-(1H-tetrazol-1-yl)benzyl]-2-[(2R)-2-cyclopentyl-2-hydroxyacetyl]isoxazolidine-3-carboxamide] | 41 |
| O=C(NCc1cc(Cl)ccc1-n1cnnn1)[C@@H]1CC=NN1C(=O)C(O)c1cccc(F)c1F (stereo partly drawn) [Example 2, (5S)—N-[5-Chloro-2-(1H-tetrazol-1-yl)benzyl]-1-[(2,3-difluorophenyl)(hydroxy)acetyl]-4,5-dihydro-1H-pyrazole-5-carboxamide] | 34 |
| O=C(NCc1cc(Cl)ccc1-n1cnnn1)[C@@H]1CCON1C(=O)[C@H](O)c1ccc(F)cc1 [Example 31, (3S)—N-[5-Chloro-2-(1H-tetrazol-1-yl)benzyl]-2-[(2R)-2-(4-fluorophenyl)-2-hydroxyacetyl]isoxazolidine-3-carboxamide] | 9.7 |
| O=C(NCc1cc(Cl)ccc1-n1cnnn1)[C@@H]1CCON1C(=O)C(O)c1cccc(F)c1F (stereo partly drawn) [Example 34, (3S)—N-[5-Chloro-2-(1H-tetrazol-1-yl)benzyl]-2-[(2,3-difluorophenyl)(hydroxy)acetyl]isoxazolidine-3-carboxamide] | 160 |
| O=C(NCc1cc(Cl)ccc1-n1cnnn1)[C@@H]1CCNN1C(=O)C(O)c1ccccc1F (stereo partly drawn) [Example 50, (3S)—N-[5-Chloro-2-(1H-tetrazol-1-yl)benzyl]-2-[(2-fluorophenyl)(hydroxy)acetyl]pyrazolidine-3-carboxamide] | 79 |
| CCCC[C@@H](O)C(=O)N1OCC[C@H]1C(=O)NCc1cc(Cl)ccc1-n1cnnn1 [Example 38, (3S)—N-[5-Chloro-2-(1H-tetrazol-1-yl)benzyl]-2-[(2R)-2-hydroxyhexanoyl]isoxazolidine-3-carboxamide] | 43 |

— patent US20110130432A1, “Heterocyclic Carboxamides For Use As Thrombin Inhibitors” (ASTRAZENECA AB, priority 2008, published 2011)
